The text below walks through data of patent US10138238B2, “Pesticidally active polycyclic derivatives with sulfur containing substituents” (Syngenta Participations AG, priority 2015, dated 2018).

Common to all, as to type: in vivo
In test [1] the test system is Euschistus heros (Neotropical Brown Stink Bug). As to the kind of experiment: Example B3: Euschistus heros, soybean leaves, N2 nymphs. Particulars: 120 h, application rate of 200 ppm, 5 days after infestation, read-out: effect in at least one of the two categories (mortality or growth inhibition). As for the experimental part:
Soybean leaves on agar in 24-well microtiter plates were sprayed with aqueous test solutions prepared from 10'000 ppm DMSO stock solutions. After drying the leaves were infested with N2 nymphs. The samples were assessed for mortality and growth inhibition in comparison to untreated samples 5 days after infestation. The following compounds gave an effect of at least 80% in at least one of the two categories (mortality or growth inhibition) at an application rate of 200 ppm: • P1, P3, P8, P9, P10, P13, P14, and P15

Test [2] relates to Spodoptera littoralis (Egyptian Cotton Leaf Worm). Briefly: Example B7: Spodoptera littoralis, cotton leaf discs, L1 larvae. Conditions: foliar, 72 h, application rate of 200 ppm, 3 days after infestation. As for the experimental part:
(§1) Cotton leaf discs were placed onto agar in 24-well microtiter plates and sprayed with aqueous test solutions prepared from 10'000 ppm DMSO stock solutions. After drying the leaf discs were infested with five L1 larvae. The samples were assessed for mortality, anti-feeding effect, and growth inhibition in comparison to untreated samples 3 days after infestation. Control of Spodoptera littoralis by a test sample is given when at least one of the categories mortality, anti-feedant effect, and growth inhibition is higher than the untreated sample.

Test [3] concerns Diabrotica balteata (Corn Root Worm). As to the kind of experiment: Example B13: Breakpoint (BP80) against Diabrotica balteata. Particulars: lowest concentration which gives 80% larval mortality; larval feeding/contact. As for the experimental part: (§2) Maize sprouts placed onto an agar layer in 24-well microtiter plates were treated with aqueous test solutions prepared from 10'000 ppm DMSO stock solutions by spraying. After drying, the plates were infested with L2 larvae (6 to 10 per well). The samples were assessed for mortality and growth inhibition in comparison to untreated samples 4 days after infestation. The following compounds gave an effect of at least 80% in at least one of the two categories (mortality or growth inhibition) at an application rate of 200 ppm: P1, P2, P3, P4, P5, P6, P7, P8, P9, P10, P11, P12, P13, P14, and P15.
(§3) Insecticidal action against Diabrotica balteata (Corn root worm), Plutella xylostella (Diamond black moth), and Spodoptera littoralis (Egyptian cotton leaf worm). The tests were carried out as described in biological examples B2, B6 and B7, respectively, with the larval feeding/contact activity being reported as Breakpoint (BP80) values in parts per million (i.e. the lowest concentration which gives 80% larval mortality).

Test [4] relates to Spodoptera littoralis (Egyptian Cotton Leaf Worm). Briefly: Example B13: Breakpoint (BP80) against Spodoptera littoralis. Particulars: lowest concentration which gives 80% larval mortality; larval feeding/contact. As for the experimental part: as §1, §3
For test [5], the system named is Plutella xylostella (Diamond Back Moth). Briefly: Example B6: Plutella xylostella, artificial diet, L2 larvae. Conditions: 120 h, application rate of 200 ppm, 5 days after infestation, read-out: effect in at least one of the two categories (mortality or growth inhibition). As for the experimental part:
(§4) 24-well microtiter plates with artificial diet were treated with aqueous test solutions prepared from 10'000 ppm DMSO stock solutions by pipetting. After drying, the plates were infested with L2 larvae (10 to 15 per well). The samples were assessed for mortality and growth inhibition in comparison to untreated samples 5 days after infestation. The following compounds gave an effect of at least 80% in at least one of the two categories (mortality or growth inhibition) at an application rate of 200 ppm: P1, P2, P3, P4, P6, P8, P9, P10, P11, P12, P13, P14 and P15.

Test [6] has as its system Plutella xylostella (Diamond black moth). Briefly: Example B13: Breakpoint (BP80) against Plutella xylostella. Conditions: lowest concentration which gives 80% larval mortality; larval feeding/contact. The protocol: as §4, §3
Test [7] has as its system Diabrotica balteata (Corn Root Worm). As to the kind of experiment: Example B2: Diabrotica balteata, maize sprouts, L2 larvae. Particulars: 96 h, application rate of 200 ppm, 4 days after infestation, read-out: effect in at least one of the two categories (mortality or growth inhibition). The protocol:
as §2

For test [8] the test system is unchanged. Briefly: Example B14: Breakpoint (BP80) against Diabrotica balteata. Conditions: lowest concentration which gives 80% larval mortality; Table B14. As for the experimental part:
as §2
Insecticidal action against Diabrotica balteata (Corn root worm). The test were carried out as described in biological example B6 with the larval feeding contact activity being reported as Breakpoint (BP80) values in parts per million (i.e. the lowest concentration which gives 80% larval mortality).

In test [9] the test system is Bemisia tabaci (Cotton White Fly). Briefly: Example B1: Bemisia tabaci feeding/contact activity. Particulars: 144 h, application rate of 200 ppm, adult white flies, 6 days after incubation. As for the experimental part:
Cotton leaf discs were placed on agar in 24-well microtiter plates and sprayed with aqueous test solutions prepared from 10'000 ppm DMSO stock solutions. After drying the leaf discs were infested with adult white flies. The samples were checked for mortality 6 days after incubation.

The subject of test [10] is Spodoptera littoralis (Egyptian Cotton Leaf Worm). Briefly: Example B8: Spodoptera littoralis systemic activity. Conditions: 144 h, test rate of 12.5 ppm, lettuce, 6 days after infestation, read-out: effect in at least one of the three categories (mortality, anti-feeding, or growth inhibition). The text has this:
Test compounds were applied by pipette from 10'000 ppm DMSO stock solutions into 24-well plates and mixed with agar. Lettuce seeds were placed onto the agar and the multi well plate was closed by another plate which contained also agar. After 7 days the compound was absorbed by the roots and the lettuce grew into the lid plate. The lettuce leaves were then cut off into the lid plate. Spodoptera eggs were pipetted through a plastic stencil onto a humid gel blotting paper and the lid plate was closed with it. The samples were assessed for mortality, anti-feedant effect and growth inhibition in comparison to untreated samples 6 days after infestation. The following compounds gave an effect of at least 80% in at least one of the three categories (mortality, anti-feeding, or growth inhibition) at a test rate of 12.5 ppm: • P10, P13, P14 and P15.

The subject of test [11] is Myzus persicae (Green Peach Aphid). As to the kind of experiment: Example B4: Myzus persicae feeding/contact activity. Particulars: 144 h, application rate of 200 ppm, 6 days after infestation. As for the experimental part:
Sunflower leaf discs were placed onto agar in a 24-well microtiter plate and sprayed with aqueous test solutions prepared from 10'000 ppm DMSO stock solutions. After drying, the leaf discs were infested with an aphid population of mixed ages. The samples were assessed for mortality 6 days after infestation.

Take `CCS(=O)(=O)c1ccc(-c2ccc(Cl)cc2)nc1-c1nc2cc(C(F)(F)F)ncc2n1C` [Compound P1, 2-[6-(4-chlorophenyl)-3-ethylsulfonyl-2-pyridyl]-3-methyl-6-(trifluoromethyl)imidazo[4,5-c]pyridine]: the percent effect (mortality or growth inhibition) at 200 ppm in test [1], in test [5] and in [7] was at least 80% each time. This compound displayed a percent control (mortality, anti-feedant effect or growth inhibition) at 200 ppm in test [2] of at least 80%. Also, the “BP80 Values Diabrotica balteata” value in test [3] amounted to 3 ppm. In test [4], the “BP80 Values Spodoptera littoralis” value turned out to be 12 ppm. The “BP80 Values Plutella xylostella” value in test [6] is given as 12 ppm.
Consider `CCS(=O)(=O)c1ccc(/C=C/c2ccccc2C(F)(F)F)nc1-c1nc2cc(C(F)(F)F)ncc2n1C` [Compound P2, 2-[3-ethylsulfonyl-6-[(E)-2-[2-(trifluoromethyl)phenyl]vinyl]-2-pyridyl]-3-methyl-6-(trifluoromethyl)imidazo[4,5-c]pyridine], for which, in test [2], the percent control (mortality, anti-feedant effect or growth inhibition) at 200 ppm was at least 80%. The percent effect (mortality or growth inhibition) at 200 ppm in test [5] and in test [7] was at least 80% throughout.
Take `CCS(=O)(=O)c1cc(C(F)(F)F)c(-c2ccc(C(F)(F)F)cc2)nc1-c1nc2cc(C(F)(F)F)ncc2n1C` [Compound P4, 2-[3-ethylsulfonyl-5-(trifluoromethyl)-6-[4-(trifluoromethyl)phenyl]-2-pyridyl]-3-methyl-6-(trifluoromethyl)imidazo[4,5-c]pyridine]: in [2], the percent control (mortality, anti-feedant effect or growth inhibition) at 200 ppm was at least 80%. The percent effect (mortality or growth inhibition) at 200 ppm in test [5] and in [7] was at least 80% each time. For the same compound, the “BP80 Values Diabrotica balteata” value in [8] is 10 ppm.
In the case of `CCS(=O)(=O)c1cc(C(F)(F)F)c(-c2cccc(C(F)(F)F)c2)nc1-c1nc2cc(C(F)(F)F)ncc2n1C` [Compound P5], the percent control (mortality, anti-feedant effect or growth inhibition) at 200 ppm in test [2] is at least 80%. Moreover, the “BP80 Values Diabrotica balteata” value in [8] is 10 ppm. In [7], the percent effect (mortality or growth inhibition) at 200 ppm was at least 80%.
As for `CCS(=O)(=O)c1cc(C(F)(F)F)c(-c2ccccc2Cl)nc1-c1nc2cc(C(F)(F)F)ncc2n1C` [Compound P6], the percent control (mortality, anti-feedant effect or growth inhibition) at 200 ppm in [2] was at least 80%. Further, the percent effect (mortality or growth inhibition) at 200 ppm in test [5] and in test [7] was at least 80% in each case.
As to `CCS(=O)(=O)c1ccc(-c2cc(F)cc(F)c2)nc1-c1nc2cc(C(F)(F)F)ncc2n1C` [Compound P8, 2-[6-(3,5-difluorophenyl)-3-ethylsulfonyl-2-pyridyl]-3-methyl-6-(trifluoromethyl)imidazo[4,5-c]pyridine], the percent effect (mortality or growth inhibition) at 200 ppm in test [1], in test [5] and in [7] was at least 80% each time. The same compound showed a percent control (mortality, anti-feedant effect or growth inhibition) at 200 ppm in [2] of at least 80%.
`CCS(=O)(=O)c1ccc(-n2ccc(C(F)(F)F)n2)nc1-c1nc2cc(SC(F)(F)F)ncc2n1C` [Compound P9, 2-[3-ethylsulfonyl-6-[3-(trifluoromethyl)pyrazol-1-yl]-2-pyridyl]-3-methyl-6-(trifluoromethylsulfanyl)imidazo[4,5-c]pyridine]: in test [9], the mortality at 200 ppm was at least 80%. The percent effect (mortality or growth inhibition) at 200 ppm in test [1], in test [5] and in test [7] was at least 80% in each case. Besides, in [2], the percent control (mortality, anti-feedant effect or growth inhibition) at 200 ppm is at least 80%.
As for `CCS(=O)(=O)c1ccc(-n2ccc(Cl)n2)nc1-c1nc2cc(SC(F)(F)F)ncc2n1C` [Compound P11], in test [2], the percent control (mortality, anti-feedant effect or growth inhibition) at 200 ppm is at least 80%. Also, the percent effect (mortality or growth inhibition) at 200 ppm in test [5] and in test [7] was at least 80% in each case.
In [2], `CCS(=O)(=O)c1ccc(C2CC2)nc1-c1nc2cc(Br)ncc2n1C` [Compound P12, 6-bromo-2-(6-cyclopropyl-3-ethylsulfonyl-2-pyridyl)-3-methyl-imidazo[4,5-c]pyridine] showed a percent control (mortality, anti-feedant effect or growth inhibition) at 200 ppm of at least 80%. Moreover, the percent effect (mortality or growth inhibition) at 200 ppm in [5] and in test [7] was at least 80% in each case.
On to `CCS(=O)(=O)c1ccc(C2CC2)nc1-c1nc2cc(C(F)(F)F)nnc2n1C` [Compound P14, 6-(6-cyclopropyl-3-ethylsulfonyl-2-pyridyl)-7-methyl-3-(trifluoromethyl)imidazo[4,5-c]pyridazine], for which the percent effect (mortality, anti-feeding or growth inhibition) at 12.5 ppm in [10] is at least 80%. Also, the mortality at 200 ppm in test [9] and in test [11] was at least 80% in each case. Further, the percent effect (mortality or growth inhibition) at 200 ppm in test [1], in test [5] and in [7] was at least 80% throughout. Also, the percent control (mortality, anti-feedant effect or growth inhibition) at 200 ppm in test [2] was at least 80%.
In the case of `CCS(=O)(=O)c1ccc(C2CC2)nc1-c1nc2cc(C(F)(F)F)ncc2n1C` [Compound P15, 2-(6-cyclopropyl-3-ethylsulfonyl-2-pyridyl)-3-methyl-6-(trifluoromethyl)imidazo[4,5-c]pyridine], the percent effect (mortality, anti-feeding or growth inhibition) at 12.5 ppm in test [10] is at least 80%. This compound yielded a mortality at 200 ppm in test [11] of at least 80%. Besides, the percent effect (mortality or growth inhibition) at 200 ppm in test [1], in test [5] and in test [7] was at least 80% each time. Moreover, the percent control (mortality, anti-feedant effect or growth inhibition) at 200 ppm in [2] was at least 80%.
For the compound `CCS(=O)(=O)c1cc(C(F)(F)F)cnc1-c1nc2cc(C(F)(F)F)ncc2n1C` [Compound V12.01, reference compound], the “BP80 Values Diabrotica balteata” value in [8] amounted to 16 ppm.
With `CCS(=O)(=O)c1cccnc1-c1nc2cc(C(F)(F)F)ncc2n1C` [Compound V12.03, reference compound], in test [3], the “BP80 Values Diabrotica balteata” value turned out to be 16 ppm. Moreover, the “BP80 Values Spodoptera littoralis” value in [4] is 250 ppm. In addition, in [6], the “BP80 Values Plutella xylostella” value is recorded as 250 ppm.
